# Experimental data reported in patent publication US20240238327A1 (priority 2021, published 2024).
# Legend:
# [1] = system: whole blood from wild-type C57/BL6 mice; assay: hemolytic activity; type: cell-based; conditions: monomers; 50 mg/ml in PBS, 37° C., 1 hour
# Description: For hemolytic activity analysis, 30 μL of whole blood from wild-type C57/BL6 mice was mixed with 300 μL of a PBS solution containing 50 mg/ml of cyclodextrin and reacted at 37° C. for 1 hour. After centrifuging the mixture at 3,000 g for 5 minutes, the absorbance at 540 nm was measured using the supernatant.
# Raw 264.7 cells [2] = assay: intracellular cholesterol excretion in macrophages that had taken up fluorescent cholesterol; type: cell-based; conditions: 5 mg/mL, 48 hours; PBS control set to 100%
# Description: Raw 264.7 cells were dispensed at 5×10^4 cells per well of a 96-well plate, and after 24 hours, the cells were treated with cholesterol crystals at a concentration of 50 μM. […] The cells were cultured at 37° C. in 5% CO2 for 48 hours, and intracellular cholesterol fluorescence was analyzed using a fluorescence microscope. In addition, to investigate the effect of cyclodextrin on intracellular cholesterol metabolism, the amount of ATP-binding cassette transporter (ABCA1) involved in cholesterol excretion was quantified using a cell flow rate analyzer, and cholesteryl ester, which is a storage form of cholesterol, was quantified.
# Raw 264.7 cells [3] = assay: cytotoxicity (CCK-8 cell viability); type: cell-based; conditions: monomers, 20 mg/mL
# Description: Raw 264.7 cells were maintained in a DMEM containing 10% FBS and 1% penicillin/streptomycin. 5×10^4 cells were dispensed in each well of a 96-well plate, and after 24 hours, the cells were treated with cyclodextrin at a concentration of 20 mg/mL. After culturing the cells at 37° C. in 5% CO2, a CCK-8 agent was added, 10 μL at a time.
# Raw 264.7 cells [4] = assay: plasma membrane cholesterol extraction from fixed cells; type: cell-based; conditions: for plasma membrane cholesterol extraction: monomers, 20 mg/mL in PBS, 37° C., 1 hour, fixed cells
# Description: Raw 264.7 cells were maintained in a Dulbecco's modified Eagle's medium (DMEM) containing 10% fetal bovine serum (FBS) and 1% penicillin/streptomycin. In order to suppress endocytosis of cyclodextrin and induce only plasma membrane cholesterol extraction, 1×10^5 cells were fixed at room temperature for 20 minutes using formaldehyde, and then cyclodextrin was dissolved in PBS in a concentration of 20 mg/mL and treated to the cells at 37° C. for 1 hour. The treated PBS was collected, centrifuged at a rate of 14,000 g for 30 minutes to remove cell debris and microvesicles, and then the cholesterol concentration in the supernatant was quantified using a Cholesterol Quantification Kit (Sigma Aldrich). The plasma membrane cholesterol extraction of gamma-cyclodextrins and polymers thereof was compared with alpha and beta-cyclodextrins and polymers thereof. […] The plasma membrane cholesterol extraction induced by gamma-cyclodextrins and polymers thereof was compared with alpha- and beta-cyclodextrins and polymers thereof, and the results are shown in FIG. 5.
# [5] = cholesterol crystal dissolution; type: physicochemical; conditions: monomers; 20 mg/mL, 37° C., 2 hours; NBD-cholesterol fluorescence
# Description: First, in order to form cholesterol crystals, a solution including 2 mg/ml of cholesterol and 0.2 mg/ml of NBD-cholesterol in ethanol was prepared, and then distilled water (30% v/v) was added to the solution to induce crystallization. The solution was completely dried under vacuum, resuspended in PBS, and sonicated for 30 seconds. 20 μL of 5 mM cholesterol was mixed with 300 μL of 20 mg/mL cyclodextrin and reacted at 37° C. for 2 hours. After centrifuging the mixture at 14,000 g for 30 minutes to remove undissolved cholesterol crystals, the supernatant was collected and the fluorescence of dissolved NBD-cholesterol was measured at 480 nm/520 nm, and the cholesterol crystal dissolution levels depending on the molecular weights of hydroxypropyl-alpha-, -beta-, -gamma-cyclodextrin monomers and polymers were confirmed.
# [6] = system: outer hair cells in the cochlea; conditions: 5 g/kg brain weight intraventricular; one week after injection
# Description: (§1) To assess systemic toxicity, cyclodextrin dissolved in PBS was subcutaneously injected in an amount of 10 g/kg body weight to wild-type C57/BL6 mice. […] The body weight and behavioral characteristics of the mice were observed every day for a week. The behavioral characteristics of the mice were measured according to the criteria presented in Endpoints for Mouse Abdominal Tumor Models: Refinement of Current Criteria. In order to confirm toxicity to major organs, the mice were sacrificed 7 days later, and H&E staining was performed. In order to assess ototoxicity, the mice were sacrificed 7 days later, and the outer hair cells in the cochlea were quantified through microscopic observation. […] The brain weight of the mice was calculated to be about 0.4 g according to the age, and as a result, 2 mg of cyclodextrin was dissolved in 10 μL of PBS and injected. After 7 days, the outer hair cells in the cochlea were quantified through microscopic observation.
# (§2) Also, the histological analysis of the major organs of the mice after one week is shown in FIG. 24, and ototoxicity of the C57BL/6 mice was evaluated one week after subcutaneously injecting 10 g/kg of cyclodextrin and intraventricularly injecting 5 g/kg brain weight of cyclodextrin. […]
# [7] = systemic toxicity (body weight, behavioral score, organ histology); conditions: 10 g/kg subcutaneous; one day after administration
# Description: as §1, §2
Molecule,hemolytic activity [1] [%],amount of intracellular cholesterol (Raw 264.7 cells [2]) [%],cell viability (Raw 264.7 cells [3]) [%],plasma membrane cholesterol extraction (Raw 264.7 cells [4]) [%],cholesterol crystal dissolution [5] [%],outer hair cell survival [6] [%],"lowest behavioral score, average [7] [points]","level of plasma membrane cholesterol extraction (in words) (Raw 264.7 cells [4]; 20 mg/mL, compared with alpha- and beta-cyclodextrin monomers and polymers, or with the monomers)"
CC(O)COC[C@H]1O[C@@H]2O[C@H]3[C@H](O)[C@@H](O)[C@@H](O[C@H]4[C@H](O)[C@@H](O)[C@@H](O[C@H]5[C@H](O)[C@@H](O)[C@@H](O[C@H]6[C@H](O)[C@@H](O)[C@@H](O[C@H]7[C@H](O)[C@@H](O)[C@@H](O[C@H]8[C@H](O)[C@@H](O)[C@@H](O[C@H]1[C@H](O)[C@H]2O)O[C@@H]8COCC(C)O)O[C@@H]7COCC(C)O)O[C@@H]6COCC(C)O)O[C@@H]5COCC(C)O)O[C@@H]4COCC(C)O)O[C@@H]3COCC(C)O (stereo partly drawn) [hydroxypropyl-beta-cyclodextrin],97.1,80.5,9.6,45,32.3,27.5,,
cyclodextrin,,,,,,,6,
hydroxypropyl-alpha-cyclodextrin,,,14.2,42.8,21.9,,,
hydroxypropyl-gamma-cyclodextrin,,75,93.9,5,12.1,69.7,,significantly low levels of cholesterol extraction
